Tests used:
[1] = test system: S. cerevisiae heterozygous mutants; experiment: Chemical haploinsufficiency screen and spot dilution validation; format: cell-based, Saccharomyces cerevisiae; conditions: YPD 32 µg/mL 1, relative to WT
Protocol: Chemical genetics screening was performed using the Saccharomyces heterozygous deletion collection (Transomic Technologies, TKY3504). Mutant strains were grown overnight in 200 µL YPD in a 96-well plate then pinned into 25 µL PBS using a 96-floating pin multiblot replicator (V&P Scientific Inc, Cat # 408FP6) and library copier (V&P Scientific Inc, Cat # 381). Cell dilutions were then pinned onto an Omni Tray (Nunc, Cat # 242811) single-well plate containing YPD with DMSO or 32 µg/mL 1 for a total of 384 spots per plate. Each plate contained at least one wild type control. Plates were incubated at 30°C and imaged every 24 hours for 4 days. Hits were called by visual evaluation. To validate hits and score growth phenotypes, serial dilutions of OD = 1.0, 0.1, 0.01, and 0.001 were prepared for each mutant from a 200 µL YPD overnight culture in a 96-well plate. Three microliters of each dilution was spotted on YPD containing DMSO or 32 µg /mL 1 and incubated for 72 hours at 30°C. The growth of each mutant on 1 was scored compared to wild-type controls as no inhibition (++++), modest (+++), or severe (+/++) growth inhibition.

HeLa cells = experiment: Cytotoxicity by LDH release; format: cell-based, human; conditions: 24 hours
Protocol: (§1) HepG2 [American Type Culture Collection (ATCC), HB-8065], HeLa (ATCC, CCL-2), and A549 (ATCC, CCL-185) cells were maintained and cultured in Dulbecco’s modified Eagle medium (Gibco, Cat # 11965–092) with 10% FBS and 1% penicillin/streptomycin at 37°C with 5% CO2. Cells were seeded in 96-well plates at a density of 1.25 × 10^4 cells/well and incubated overnight at 37°C with 5% CO2; then, media were removed and replaced with media containing a twofold drug dilution series with equal DMSO across all wells. Cells were incubated for an additional 24 hours, then the supernatant was removed and used to quantify lactate dehydrogenase release using the CyQuant LDH assay kit (Invitrogen, Cat # C20300) following the manufacturers’ directions. LDH was normalized to a maximum lysis control treated with Triton-X. HeLa and A549 cells were purchased in 2023, and the cells used for these studies were directly from fresh vials. HepG2 cells for these studies were used from a fresh, low passage (P3) vial saved directly from purchased stocks.

HepG2 cells = experiment: Cytotoxicity by LDH release; format: cell-based, human; conditions: HepG2, 24 hours
Protocol: as §1

A549 cells = experiment: Cytotoxicity by LDH release; format: cell-based, human; conditions: A549, 24 hours
Protocol: as §1

OC1CC(c2cc(N3CCC(CCc4ccccc4)CC3)ncn2)C1 (centres unmarked) [compound 1]
Growth ([1]; mutant YDR361C BCP1): +++
Growth ([1]; mutant YDR362C TFC6): +++
Growth ([1]; mutant YDR373W FRQ1): +++
Growth ([1]; mutant YDR416W SYF1): +++
Growth ([1]; mutant YER012W PRE1): +++
Growth ([1]; mutant YFR051C RET2): +++
Growth ([1]; mutant YGL047W ALG14): ++
Growth ([1]; mutant YGL116W CDC20): +++
Growth ([1]; mutant YGR190C Dubious_HIP1 overlap): +++
Growth ([1]; mutant YGR191W HIP1): +++
Growth ([1]; mutant YGR216C GPI1): +++
Growth ([1]; mutant YHR062C RPP1): +++
Growth ([1]; mutant YHR068W DYS1): ++
Growth ([1]; mutant YHR072W ERG7): +++
Growth ([1]; mutant YHR107C CDC12): +++
Growth ([1]; mutant YHR122W CIA2): +++
Growth ([1]; mutant YHR143W-A RPC10): ++
Growth ([1]; mutant YIL033C BCY1): +++
Growth ([1]; mutant YIL104C SHQ1): +++
Growth ([1]; mutant YIL109C SEC24): +++
Growth ([1]; mutant YIL144W NDC80): +++
Growth ([1]; mutant YIL147C SLN1): +++
Growth ([1]; mutant YIL150C MCM10): +++
Growth ([1]; mutant YIL171W): ++
Growth ([1]; mutant YIR012W SQT1): +++
Growth ([1]; mutant YKL049C CSE4): +++
Growth ([1]; mutant YKL108W SLD2): ++
Growth ([1]; mutant YKL154W SRP102): ++
Growth ([1]; mutant YKL180W RPL17A): ++
Growth ([1]; mutant YKL189W HYM1): ++
Growth ([1]; mutant YML085C TUB1): +
Growth ([1]; mutant YMR185W RTP1): +++
Growth ([1]; mutant YMR277W FCP1): +++
Growth ([1]; mutant YMR314W PRE5): +++
Growth ([1]; mutant YNL287W SEC21): +++
Growth ([1]; mutant YPL131W RPL5): +++
Growth ([1]; mutant YPL142C (no gene name)): +
Growth ([1]; mutant YPL143W RPL33A): +
Growth ([1]; mutant YPL235W RVB2): +
Growth ([1]; mutant YPL237W SUI3): +
Growth ([1]; mutant YPR035W GLN1): +++
Growth ([1]; mutant YPR136C Dubious_RRP9 overlap): ++
Growth ([1]; mutant YPR181C SEC23): +
Growth ([1]; mutant YPR187W RPO26): +
LD50 (LDH release) (HeLa cells): 146 µg/mL
LD50 (LDH release) (HepG2 cells): 111 µg/mL
LD50 (LDH release) (A549 cells): 198 µg/mL

Source: publication PMC11302339, “A series of pyrimidine-based antifungals with anti-mold activity disrupt ER function in Aspergillus fumigatus” (Microbiology Spectrum, 2024)
